From US10456409B2 (priority 2016, dated 2019)
Like-named read-outs stand apart in the source and are kept apart here.

Tests used:
Type in all cases: cell-based, mouse
[1] = system: bone marrow stromal cells (BMSC), first passage (P1); assay: Alkaline phosphatase assay (NBT/BCIP staining) of primary BMSC (P1) in osteogenic media; settings: primary BMSC P1, four days in osteogenic media; ATO 10 μM, Cholecalciferol 10 μM, Lovastatin 1 μM, NP101 diluted 1:1 or 1:10 (FIG. 1)
Method: (§1) Mesenchymal stem cells isolation: Bone marrow stromal cells were isolated from six to eight weeks old wild type mice. Femurs and tibias were dissected from surrounding tissues. The epiphyseal growth plates were removed and the marrow was collected by flushing with modified essential medium (MEM) containing 100 U/ml Penicillin, 100 μg/ml streptomycin and 10% fetal bovine serum with a 25 G needle. Single cell suspensions were prepared by passing the cell clumps through an 18G needle followed by filtration through a 70-μm cell strainer.
(§2) After cells reached confluence, medium was replaced with osteogenic differentiation medium (OM). Osteogenic differentiation medium (OM) consists of: DMEM, 10% FBS, Pen-Strep (1×), L-Glutamine (2 mM), 10 mM beta glycerol phosphate and 50 μg/ml ascorbic acid. Duplicate wells were exposed to differentiation media without any agent (control), single agent (Cholecalciferol, ATO or Lovastatin) or Nosto-101 combination agents. Media replacement occurred every 2-3 days with fresh differentiation medium (made each time during feeding) with or without single agent or Nosto-101.
(§3) Alkaline phosphatase assay: Cells were stained after 4 days exposure in OM differentiation medium for Alkaline Phosphatase (AP) assay. This is a colorimetric assay in which NBT (nitro-blue tetrazolium chloride) and BCIP (5-Bromo-4-chloro-3′-indolyphosphate p-toluidine salt) yields insoluble purple precipitate when reacted with alkaline phosphatase enzyme.
After 4 days of culturing cells in OM media, cells were fixed with 4% paraformaldehyde and then washed once with PBS. One ml of One-step NBT/BCIP staining solution (Thermo Fisher) was added per well and the cells were then incubated in the dark for 30 min to 1 h and checked for color development. The reaction was quickly stopped by removing NBT/BCIP and adding water.

[2] = system: Alkaline Phosphatase gene expression in BMSC culture; settings: four days in OM media, control = 1.00
Method: as §1, §2
qRT-PCR: Total RNA was isolated first with Trizol (Invitrogen) and then with RNeasy Kit (Qiagen). First strand cDNA was generated using a High capacity cDNA reverse transcriptase kit (Abcam). qPCR was performed using a Biorad cycler at 40 cycles of 95° C. for 5 seconds and at 60° C. for 30 seconds. PCR product was detected using SybrGreen (BioRad). Primers used for amplifications were Actin: Forward 5′-CACAGCTTCTTTGCAGCTCCT-3′ (SEQ ID NO:1), Reverse 5′-CGT CAT CCA TGG CGA ACT G-3′ (SEQ ID NO:2); Alk Phos: Forward 5′-CACGCGATGCAACACTCAGG-3′ (SEQ ID NO:3), Reverse 5′-GCATGTCCCCGGGCTCAAAGA-3′ (SEQ ID NO:4).

[3] = system: BMSC cells primed for osteogenesis; settings: BMSC primed with LCN2 and PRL, then osteogenic media with agent; ATO 10 μM, Cholecalciferol 10 μM, Lovastatin 1 μM, NP101 diluted 1:1 or 1:10 (FIG. 2)
Method: as §1
Priming cells for osteogenseis: An aliquot of cells was diluted 1:1 with 0.04% trypan blue in PBS and viable cells were plated at a density of 2×10^6 cells/cm^2 and in a 35-mm culture dish and exposed to recombinant mouse Prolactin (PRL) (1 ng/ml) and/or Lacritin 2(LCN2) (18 ng/ml) in Alpha MEM media with 20% FBS, L-Glutamine 2 mM and Pen-Strep (1×) for three passages to prime cells for osteogenesis. After the third passage, 50,000 bone marrow stromal cells per well were plated in a 24 well plate in Alpha MEM 20% FBS, L-Glutamine (4 mM), PenStrep (1×) and MEM Non-Essential Amino Acids (1×).
as §2
as §3, with “enzyme. […]” for “enzyme.”

| Molecule | alkaline phosphatase activity (number of blue colored cells) [1] | ALP gene expression fold change ([2]; 1 μm agent) [fold] | ALP activity (presence of bluish/purple cells) [3] | ALP gene expression fold change ([2]; 10 μm agent) [fold] |
| --- | --- | --- | --- | --- |
| CC[C@H](C)C(=O)O[C@H]1C[C@@H](C)C=C2C=C[C@H](C)[C@H](CC[C@@H]3C[C@@H](O)CC(=O)O3)[C@H]21 [Lovastatin] | decreases | 0.316 ± 0.02 | clearly diminish ALP activity |  |
| C=C1CC[C@H](O)C/C1=C/C=C1\CCC[C@]2(C)[C@@H]([C@H](C)CCCC(C)C)CC[C@@H]12 [Cholecalciferol] | decreases |  | clearly diminish ALP activity | 0.350 ± 0.02 |
| Arsenic trioxide [ATO] | decreases |  | clearly diminish ALP activity | 0.105 ± 0.01 |
